Data published in patent publication US20180042953A1, “ANTIBACTERIAL INJECTABLE PHARMACEUTICAL COMPOSITION” (OBSHCHESTVO S OGRANICHENNOY OTVETSTVENNOSTYU "VIK - …, priority 2012, published 2018).

Test: Azithromycin solubility in organic solvents
Assay type: physicochemical

Maximum azithromycin conc. (solvent 2-Pyrrolidone): 28.9%
Maximum azithromycin conc. (solvent 3,3-dimethyl-2-pyrrolidone): 26.4%
Maximum azithromycin conc. (solvent Dimethylacetamide): 32.1%
Maximum azithromycin conc. (solvent Dimethylsulfoxide): 26.4%
Maximum azithromycin conc. (solvent N-ethoxy-2-pyrrolidone): 23.3%
Maximum azithromycin conc. (solvent N-ethyl-2-pyrrolidone): 25.8%
Maximum azithromycin conc. (solvent N-methyl-2-pyrrolidone): 31.2%
Maximum azithromycin conc. (solvent N-octyl-2-pyrrolidone): 21.5%
Maximum azithromycin conc. (solvent Propylene glycol): 13.4%
Maximum azithromycin conc. (solvent Transcutol): 10.2%
SMILES: CC[C@H]1OC(=O)[C@H](C)[C@@H](O[C@H]2C[C@@](C)(OC)[C@@H](O)[C@H](C)O2)[C@H](C)[C@@H](O[C@@H]2O[C@H](C)C[C@H](N(C)C)[C@H]2O)[C@](C)(O)C[C@@H](C)CN(C)[C@H](C)[C@@H](O)[C@]1(C)O [Azithromycin, (2R,3S,4R,5R,8R,10R,11R,12S,13S,14R)-13-[(2,6-dioxy-3-C-methyl-3-O-methyl-a-L-ribohexopyranozyl)oxy]-2-ethyl-3,4, 10-trihydroxy-3,5,6,8,10,12,14-heptamethyl-11-[[3,4,6-trideoxy-3-(dimethylamino)-b-D-xylo-hexapyranozyl]oxy]-1-ox-6-azacyclopentadecane-15-one]
